The record followed here is ChEMBL document CHEMBL1130437, “Discovery of selective dopamine D4 receptor antagonists: 1-Aryloxy-3-(4-aryloxypiperidinyl)-2-propanols” (Bioorg Med Chem Lett, 1997).

Common to all, as to format: cell-based
The target in one assay is T1, D(4) dopamine receptor (Homo sapiens, UniProt P21917).
T1 sequence (P21917 whole entry): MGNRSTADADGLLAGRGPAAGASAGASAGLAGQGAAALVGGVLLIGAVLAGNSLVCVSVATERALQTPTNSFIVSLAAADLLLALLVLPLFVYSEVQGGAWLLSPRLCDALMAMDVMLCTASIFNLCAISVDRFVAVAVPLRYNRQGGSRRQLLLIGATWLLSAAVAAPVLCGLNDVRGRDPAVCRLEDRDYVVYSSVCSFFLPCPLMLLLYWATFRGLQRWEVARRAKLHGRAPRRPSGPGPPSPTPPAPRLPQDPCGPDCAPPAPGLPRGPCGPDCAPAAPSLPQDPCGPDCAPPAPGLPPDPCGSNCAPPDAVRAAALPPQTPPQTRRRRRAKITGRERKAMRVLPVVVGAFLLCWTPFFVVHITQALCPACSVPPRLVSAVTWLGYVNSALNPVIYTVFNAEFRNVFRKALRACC
Put plainly: Binding affinity against human cloned D4 receptor transfected in CHO-K1 cells by [3H]- spiperone displacement.

The target of a further assay is D(3) dopamine receptor (Homo sapiens, UniProt P35462). Put plainly: Binding affinity against cloned human D3 receptor transfected in CHO-K1 cells using [3H]- spiperone as radioligand.
For the next assay, the target named is D(2) dopamine receptor (Homo sapiens, UniProt P14416). Nature of the assay: Binding affinity against cloned human D2 receptor transfected in CHO-K1 cells using [3H]- spiperone as radioligand.
Sequence of D(2) dopamine receptor (P14416 whole entry): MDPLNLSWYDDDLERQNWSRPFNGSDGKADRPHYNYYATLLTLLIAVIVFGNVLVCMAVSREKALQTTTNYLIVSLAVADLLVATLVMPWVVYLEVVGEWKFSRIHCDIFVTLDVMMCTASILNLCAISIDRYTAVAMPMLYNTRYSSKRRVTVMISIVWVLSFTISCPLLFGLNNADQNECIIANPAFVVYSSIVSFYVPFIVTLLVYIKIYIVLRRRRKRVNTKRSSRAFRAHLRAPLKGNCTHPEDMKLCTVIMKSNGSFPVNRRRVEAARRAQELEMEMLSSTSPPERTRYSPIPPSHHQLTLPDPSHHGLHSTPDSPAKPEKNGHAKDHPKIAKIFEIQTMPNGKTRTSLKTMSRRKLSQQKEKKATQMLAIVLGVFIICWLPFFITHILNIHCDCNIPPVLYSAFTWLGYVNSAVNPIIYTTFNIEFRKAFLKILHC

Sequence of D(3) dopamine receptor (P35462 whole entry): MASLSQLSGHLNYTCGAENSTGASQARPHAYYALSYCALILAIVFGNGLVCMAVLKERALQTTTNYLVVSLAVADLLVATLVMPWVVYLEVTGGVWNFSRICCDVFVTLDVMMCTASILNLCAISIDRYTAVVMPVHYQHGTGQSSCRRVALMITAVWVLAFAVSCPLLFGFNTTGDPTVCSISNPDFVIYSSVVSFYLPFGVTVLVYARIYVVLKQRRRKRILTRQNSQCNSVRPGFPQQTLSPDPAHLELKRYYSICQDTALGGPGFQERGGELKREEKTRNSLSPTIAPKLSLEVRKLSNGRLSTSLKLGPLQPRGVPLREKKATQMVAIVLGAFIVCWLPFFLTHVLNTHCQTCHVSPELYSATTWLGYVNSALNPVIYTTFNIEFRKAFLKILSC

As usually defined, the Ki is the dissociation constant of the complex between target and ligand, obtained from inhibition or displacement. A higher Ki goes with lower affinity. `OC(COc1cccc2ccccc12)CN1CCC(Cc2ccc(Cl)cc2)CC1` (stereo not given) returned a Ki at D(4) dopamine receptor of 45 nM. The molecule `Cc1ccc(CC2CCN(CC(O)COc3cccc4ccccc34)CC2)cc1` (stereo not given) displayed a Ki at D(4) dopamine receptor of 52 nM. Still for that read-out and setting: as for `c1ccc(CC2CCN(CCCOc3cccc4ccccc34)CC2)cc1`, the figure is 50 nM.

On to `O[C@@H](COc1ccccc1)CN1CCC(Oc2ccccc2)CC1`, for which the Ki at D(4) dopamine receptor was 2 nM; at D(3) dopamine receptor, 220 nM; at D(2) dopamine receptor, 244 nM.

At D(4) dopamine receptor, `CC(COc1cccc2ccccc12)CN1CCC(Cc2ccccc2)CC1` (stereo not given) showed a Ki of 72 nM. As to `OC(COc1ccccc1)CN1CCC(Oc2ccccc2)CC1` (racemic), the Ki on D(4) dopamine receptor was 3.6 nM; at D(3) dopamine receptor it was 537 nM; on D(2) dopamine receptor, 911 nM.

Consider `OC(COc1cccc2ccccc12)CN1CCC(Cc2ccccc2)CC1` (stereo not given), for which the Ki on D(4) dopamine receptor turned out to be 26 nM; at D(2) dopamine receptor it was 1440 nM.

Molecule `OC(COc1ccccc1)CN1CCC(Cc2ccccc2)CC1` (stereo not given) returned a Ki on D(4) dopamine receptor of 34 nM. As for `O[C@H](COc1ccccc1)CN1CCC(Oc2ccccc2)CC1`, the Ki at D(4) dopamine receptor came to 11.6 nM; on D(3) dopamine receptor, 457 nM; on D(2) dopamine receptor, 709 nM. As to `COc1ccc(CC2CCN(CC(O)COc3cccc4ccccc34)CC2)cc1` (stereo not given), at D(4) dopamine receptor, the Ki came out at 74 nM.

For the molecule `OC(COc1cccc2ccccc12)CN1CCC(Sc2ccccc2)CC1` (stereo not given), the Ki on D(4) dopamine receptor was 32 nM. Against the preceding molecule, the Ki is about 2.3-fold lower. At D(4) dopamine receptor, `COC(COc1cccc2ccccc12)CN1CCC(Cc2ccccc2)CC1` (stereo not given) gave a Ki of 45 nM. With `OC(COc1ccc(Cl)cc1)CN1CCC(Cc2ccccc2)CC1` (stereo not given), the Ki on D(4) dopamine receptor was 18 nM.

As to `COc1ccc(OCC(O)CN2CCC(Cc3ccccc3)CC2)cc1` (stereo not given), the Ki on D(4) dopamine receptor stood at 123 nM. Turning to `OC(COc1cccc2ccccc12)CN1CCC(Oc2ccccc2)CC1` (stereo not given), the values for the Ki on D(4) dopamine receptor and on D(2) dopamine receptor were 18 nM and 2340 nM, respectively. Consider `OC(COc1cccc2ccccc12)CN1CCC(Cc2ccc(F)cc2)CC1` (stereo not given), for which the Ki at D(4) dopamine receptor was found to be 32 nM. That is a double-digit nanomolar value. The same measure, in the same setting: next, `O=[N+]([O-])c1ccc(OCC(O)CN2CCC(Cc3ccccc3)CC2)cc1` (stereo not given): 59 nM.
